The results in this text go back to patent US10660933B2, “Compositions and methods for inhibition of bacterial infections in human endocervix” (priority 2015, dated 2020).

Experiment [1] has as its system phosphorylated myosin light chain (pMLC). Put plainly: pMLC (active NMII) redistribution in Ng-inoculated polarized T84 cells (3D-CFM). The format is cell-based, human. Particulars: for accumulation of pMLC at Ng adherent sites / apical:lateral FIR of pMLC: polarized T84, Ng 6 h; for junction:non-junction FIR of pMLC: polarized T84, Ng 6 h (Y27632: MS11ΔOpa); for junction:non-junction FIR of pMLC / apical:lateral FIR of pMLC: ML-7 10 μM, PIK 100 μM, Y27632 10 μM, 2APB 10 μM, BAPTA 50 μM. As for the experimental part:
Ng induce and Opa suppresses the redistribution of active non-muscle myosin II in polarized and endocervical epithelial cells. […] We examined the cellular distribution of active NMII after 6-h incubation with Ng, using antibody specific for phosphorylated myosin light chain (pMLC) and 3D-CFM. In uninfected polarized T84 (FIGS. 5A and 5C) and HEC-1-B cells (FIG. 10), pMLC was primarily localized at the apical junction. The polarized distribution of pMLC at the apical surface was quantified by the FIR of pMLC at the apical to the lateral (Apical:Lateral) membrane areas in individual cells using CFM images scanning across the apical and basolateral surfaces (FIGS. 5A and 5B). The polarized distribution pMLC at the apical junction was quantified by the FIR of pMLC at the junction to non-junction (Junction:Non-junction) areas of the apical region using CFM images scanning through the apical junction (FIGS. 5C and 5D). The apical inoculation of MS11Opa+ and MS11ΔOpa caused significant increases in apical:lateral FIR in both polarized T84 (FIGS. 5A and 5B) and HEC-1-B cells (FIG. 10), compared to the no Ng control. There were also significant increases in the junction:non-junction FIR in infected polarized T84 cells, compared to non-infected cells (FIGS. 5C and 5D). […] We further noticed that NMII at the apical surface appeared to accumulate at Ng adherent sites (FIG. 5A, middle panels, arrows).
Immunofluorescence analysis of polarized epithelial cells. Cells were pretreated with or without NMII kinase inhibitors, Y27632 (10 μM, EMD Millipore), ML-7 (10 μM, EMD Millipore) and PIK (100 μM) or Ca2+ inhibitors, 2APB (10 μM, EMD Millipore) and BAPTA (50 μM, EMD Millipore) for 1 h, and incubated with Ng in the presence or absence of the inhibitors for 6 h. Cell were washed and fixed with 4% paraformaldehyde, permeabilized with 1% Triton X100, and stained with anti-E-cadherin (BD Bioscience), anti-pMLC (Cell Signaling Technology, Carlsbad, Calif.), anti-Ng antibodies, and DAPI for nuclei. Cells were analyzed by CFM. Images were acquired as Z-series of 0.37 μm slices, and 3D composites obtained. Epithelial exfoliation will be quantified using xz images as described for the tissue explants. The distribution of E-cadherin and pMLC was quantitatively analyzed by measuring the FIR at the apical junctional to the cytoplasmic area (from xy images) or at the apical to lateral surface area (from xz images) in individual cells.

Experiment [2] concerns human endocervical tissue explants. Put plainly: Ng-induced epithelial exfoliation of human endocervical tissue explants (3D-CFM). The format is cell-based. Particulars: MS11ΔOpa, 24 h; ML-7 10 μM, PIK 100 μM. As for the experimental part: (§1) Human endocervical tissue explants. The tissue explants were cultured as previously described. Endocervical tissues were obtained from patients undergoing voluntary hysterectomies and received within 24 h post-surgery. Samples were cut into ˜2.5 cm (L)×0.6 cm (W)×0.3 cm (H) pieces, incubated in CMRL-1066 (GIBCO, Gaithersburg, Md.) plus antibiotics for 24 h, and then switched to antibiotic-free media for 24 h.
(§2) Immunofluorescence analysis of human endocervical tissue explants. […] The tissue was fixed, embedded in gelatin, cryopreserved, sectioned crossing the apical and basolateral surfaces of the epithelium, stained for ZO1 (BD Bioscience), pMLC (Cell Signaling Technology, Beverly, Mass.), and Ng (51) by specific antibodies, and nuclei by DAPI (Life Technologies, Carlsbad, Calif.), and analyzed using CFM (Zeiss LSM 710, Carl Zeiss Microscopy LLC, Oberkochen, Germany). […]
(§3) To quantify epithelial exfoliation, the number of Ng associated cells localized on the top of the epithelial monolayer (exfoliated) and the total number of Ng associated epithelial cells was counted by visual inspection in each randomly acquired image, to determine the percentage of exfoliated cells. […] To quantify the redistribution of pMLC, the fluorescence intensity ratios (FIR) of pMLC staining at the apical to lateral in individual epithelial cells were determined using average FI as previously described.

The test system of experiment [3] is Neisseria gonorrhoeae MS11ΔOpa. Put plainly: Ng subepithelial penetration in human endocervical tissue explants (3D-CFM). The format is cell-based. Particulars: MS11ΔOpa, 24 h; ML-7 10 μM or PIK 100 μM; 27% without inhibitor. As for the experimental part: as §1
Immunofluorescence analysis of human endocervical tissue explants. Individual endocervical tissue pieces were incubated with Ng at a MOI of ˜10 (based on the average number of endocervical epithelial cells in endocervical tissue pieces) in the presence or absence of the MLCK inhibitor ML-7 (10 μM, EMD Millipore) and PIK (100 μM) (54) on transwells for 24 h. Unassociated Ng were removed by extensive washes at 6 and 12 h. The tissue was fixed, embedded in gelatin, cryopreserved, sectioned crossing the apical and basolateral surfaces of the epithelium, stained for ZO1 (BD Bioscience), pMLC (Cell Signaling Technology, Beverly, Mass.), and Ng (51) by specific antibodies, and nuclei by DAPI (Life Technologies, Carlsbad, Calif.), and analyzed using CFM (Zeiss LSM 710, Carl Zeiss Microscopy LLC, Oberkochen, Germany). […]
as §3, with “cells. To estimate the level of Ng penetration into the subepithelium, the number of non-exfoliated epithelial cells (in clearly visible epithelial monolayers) with basal Ng staining and the total number of Ng associated epithelial cells were visually counted to calculate the percentage of infected epithelial cells with Ng penetration into the basolateral side.” for “cells.”

In experiment [4] the test system is phosphorylated myosin light chain (pMLC). Put plainly: pMLC redistribution in Ng-inoculated human endocervical tissue explants. The format is cell-based. Particulars: MS11ΔOpa-inoculated endocervical tissue explants, 24 h. The procedure: To explore the possibility of that Ng induced NMII redistribution occurs in vivo, we incubated human endocervical tissue explants with MS11ΔOpa for 24 h. Cryo-sections of the endocervical tissue were stained for pMLC, Ng and nuclei. In addition to its apical junction localization, pMLC was concentrated at the basal surface of the endocervical epithelial cells contacting with the basal membrane (FIG. 6A, upper panels). When incubated with MS11ΔOpa, there was a redistribution of pMLC from the basal to apical surface, resulting in a significant higher apical:lateral FIR in Ng inoculated tissue explants than that in no Ng control (FIG. 6), similar to what we observed in polarized T84 (FIGS. 5A and 5B) and HEC-1-B cells (FIG. 10). Furthermore, pMLC at the apical surface of the endocervical epithelial cells also concentrated at Ng adherent sites (FIG. 6A, second row, white arrows), but not at the membrane of cells neighboring exfoliating cells (FIG. 6A, second row, orange arrows). These observations confirm that Ng increase the relative amount of activated NMII at the apical surface of the endocervical epithelial cells in human tissue explants. […]
as §2
To quantify epithelial exfoliation, the number of Ng associated cells localized on the top of the epithelial monolayer (exfoliated) and the total number of Ng associated epithelial cells was counted by visual inspection in each randomly acquired image, to determine the percentage of exfoliated cells. To estimate the level of Ng penetration into the subepithelium, the number of non-exfoliated epithelial cells (in clearly visible epithelial monolayers) with basal Ng staining and the total number of Ng associated epithelial cells were visually counted to calculate the percentage of infected epithelial cells with Ng penetration into the basolateral side. To evaluate the disruption of the apical junction, the number of Ng associated epithelial cells that lost continuously apical staining of the junctional protein ZO1 and the total number of Ng associated epithelial cells were visually counted to calculate the percentage of Ng associated epithelial cells with apical junction disassembly. […]

In the case of `NCCOB(c1ccccc1)c1ccccc1` [2APB], in experiment [1], the “accumulation of pMLC at Ng adherent sites” value is listed as “decreased”, the “junction:non-junction FIR of pMLC” value is given as “decreased” and the “apical:lateral FIR of pMLC” value is on record as “decreased”.
With `O=S(=O)(c1cccc2c(I)cccc12)N1CCCNCC1` [ML-7], in experiment [2], the “epithelial exfoliation of human endocervical tissue explants” value is on record as “decreased the epithelial exfoliation of human endocervical tissue explants to the basal level”. The “percentage of epithelial cells with basally associated Ng” value in experiment [3] turned out to be 7.1%. In addition, in experiment [4], the “pMLC accumulation at Ng adherent sites” value was “significantly reduced”. In experiment [4] (ML-7 10 μM, PIK 100 μM), the “apical:lateral FIR of pMLC” value is on record as “significantly reduced”. In experiment [1], the “accumulation of pMLC at Ng adherent sites” value is listed as “significantly reduced”, the “junction:non-junction FIR of pMLC” value is “significantly reduced” and the “apical:lateral FIR of pMLC” value is “significantly reduced”.
